# Experimental data published in US11583529B2, “Treatment of inflammatory disorders” (Aldeyra Therapeutics, Inc., priority 2017, dated 2023).
# “Also recorded” adds a separate entry of the source.
# Legend:
# [1] = tested on: rat model of diabetic macular edema (DME); test: Rat model of diabetic macular edema (STZ-induced diabetes), intravitreal treatment; type: in vivo, male brown Norway rats
# Method: To assess the effect of Compound I-22 in a rat model of diabetic macular edema (DME), Type 1 diabetes was induced in male brown Norway rats by intraperitoneal administration of streptozotocin (STZ; 55 mg/kg). Forty days after STZ administration, animals were assessed for the presence of diabetes by testing blood glucose levels.
# Compound I-22 was supplied as a preformulated sterile solution at 5 mg/mL. The vehicle was 25% hydroxypropyl-β-cyclodextrin solution (333 mOsm/kg) in a sodium phosphate buffer, pH 7.2. Animals with diabetes were assigned to groups of ten, to receive either vehicle (HPβCD) or compound I-22.
# The study consisted of three groups of male brown Norway rats. Diabetes and diabetic retinopathy were induced in Groups 2 and 3 by intraperitoneal injection of streptozotocin (STZ) on Day 0; Group 1 animals served as non-STZ (non-diabetic) untreated controls. Six and eight weeks after STZ injection, Vehicle (3.5 μL) and Compound I-22 (17.5 μg per eye; 3.5 μL) were administered intravitreally to both eyes of rats in Group 2 and Group 3, respectively. Clinical observations (daily), body weights (weekly), qualitative food consumption, and blood glucose levels (weekly) were assessed. To evaluate retinopathy, electroretinography (ERG) was conducted at Weeks 8, 9 and 10; and optical coherence tomography (OCT) and fundus fluorescein angiography (FFA) were performed pre-dose at Week 6, and at Weeks 8, 9, and 10. Animals were euthanized at 10 weeks post-STZ administration and eyes were collected for histopathological evaluation.
# Type 1 diabetes was induced by intraperitoneal administration of 55 mg/kg STZ after an overnight fast. The STZ dosing solution (27.5 mg/mL) was prepared immediately prior to injection by dissolving STZ (Sigma-Aldrich Corp, St. Louis, Mo., Catalog S0130) in a citrate solution (see below) followed by filtration of the STZ solution using a 0.2 μm syringe filter (Pall Life Sciences, Ann Arbor, Mich., Catalog PN4192). The STZ dosing solution was used for injection within approximately 30 minutes after reconstitution.
# Electroretinography (ERG) was performed on Days 55, 62 and 69. After an overnight dark adaption, both eyes were dilated with 1% tropicamide. Animals were anesthetized by isoflurane prior to the procedure. ERG responses to light stimuli (8.0 cd·s/m^2) were recorded by RETevet (LKC Technologies, Inc.). Implicit times and amplitudes of a-waves and b-waves were reported. There was a deviation from the protocol in which ERG was not performed prior to Test Article administration (˜Day 40). The deviation had no impact on the conclusion of the study. Baseline ERG measurements are not required to determine efficacy of the Test Article. A […] ERG assessment was added to the study.
# Optical coherence tomography (OCT) and fundus fluorescein angiography (FFA) were performed on Day 41 (pre-dose) and Days 56, 63 and 70 (post-dose initiation). Both eyes were dilated with 1% tropicamide. Animals were anesthetized (by ketamine/xylazine intramuscular injection) prior to the procedures.
# Retinas of both eyes in each animal were scanned by OCT (Envisu R-Class, Leica/Bioptogen). Thickness of retinal mid-layers, approximately including the outer plexiform layer (OPL), the outer nuclear layer (ONL) and the photoreceptor inner segment (IS), were measured using Bioptigen InVivoVue Reader software. For each eye, four (4) digital calipers were placed randomly on a cross-section image between OPL and IS, away from optic nerve; and measurements were exported to Microsoft Excel files. An average thickness of each retina was calculated from the four (4) measurements, using Microsoft Excel.
# For FFA, ˜1.5 mL/kg fluorescein (AK-FLUOR® fluorescein injection, USP, 10%, NDC 17478253-10) was injected intraperitoneally to visualize the retinal vasculature. […]
# [2] = tested on: dextran sulfate sodium (DSS)-induced acute ulcerative colitis (UC); test: 7-Day DSS-induced acute ulcerative colitis model; type: in vivo, female Swiss Webster mice; conditions: vs PO vehicle
# [3] = 17.5 μg per eye IVT at 6 and 8 weeks after STZ, Week 10, vs vehicle
# [4] = 17.5 μg per eye IVT, vs vehicle
# [5] = 200 mg/kg PO BID, Days 0 through 6
# [6] = 200 mg/kg PO BID, Days −3 through 6
structure (smiles),measurement,setting,value
CC(C)(O)c1cc2oc(-c3ccccc3)nc2cc1N [Compound I-22],tolerability in the retina,[1]; 17.5 μg per eye IVT,well tolerated
same,neutrophil infiltration (histopathology score),[1]; [3],significant reduction; also recorded: blocked
same,retinal thickness (histopathology score),[1]; [3],reduced retinal thickness; also recorded: statically significant decrease; also recorded: significantly reduced
same,severities of the retinal lesions (histopathology),"[1]; 17.5 μg per eye IVT at 6 and 8 weeks after STZ, ten weeks after STZ, vs vehicle",significantly diminished; also recorded: statistically significant reductions
same,retinal inflammation,"[1]; 17.5 μg per eye IVT, model of DME",decreased
same,"ERG, OCT, or FFA",[1]; [4],did not show statistically significant effects
same,diabetes-induced retinal vascular changes,[1]; [4],inhibited; also recorded: blocked
same,"body weights, glucose levels, ERG, OCT or FFA",[1]; Group 3 vs Vehicle-treated Group 2,No statistically significant differences
same,Mean vascular scores,"[1]; Week 8, control group 3.0, p<0.05",2.47
same,OCT mean retinal thickness,"[1]; Week 9, vehicle-treated group 83.3 μm",82.3 μm
same,Retinal thickness (OCT),"[1]; Weeks 9 and 10, vs vehicle","reduced at Weeks 9 and 10, however it was not statistically significant"
same,decrease in retinal vascularity score,"[1]; microscopic sections of the retinas, vs vehicle, p<0.05",36%
same,ERG changes,[1]; relative to the non-diabetic control group,nor were there any ERG changes
same,decrease in vascular leakage,[1]; vs vehicle-treated group,did not reach statistical significance
same,Body weights,"[2]; 200 mg/kg PO BID (Groups 5, 6, 7, 8, 9, and 10)",did not differ significantly
same,"Colon lengths, increase in the direction of normal",[2]; [5],41%
same,PMN percentages in the proximal colon,[2]; [5],significantly increased
same,"distal colon edema, reduction",[2]; [5],78%
same,"distal colon hyperplasia, reduction",[2]; [5],86%
same,"distal colon mucosal thickness, reduction",[2]; [5],66%
same,"full colon edema, reduction",[2]; [5],62%
same,"proximal colon edema, reduction",[2]; [5],43%
same,"full colon edema, reduction",[2]; [6],48%
same,"proximal colon edema, reduction",[2]; [6],60%
same,"proximal colon mucosal thickness, reduction",[2]; [6],58%
same,DAI stool consistency scores,"[2]; Day 2, 200 mg/kg PO BID, Days 0 through 6",significantly reduced
